In brackets after ≈: the same amount, converted by molar mass.

For this data set the following is noted: buffer; pH 7.4; 200.0 µM.
Consider `O=C(O)C(=O)O.O=[N+]([O-])c1ccccc1CNCCc1c[nH]c2ccccc12`, for which the kinetic solubility (commonly the concentration staying in solution when a stock, usually in DMSO, is diluted into the medium) worked out at 41.8 µg/mL. `NC(=O)NNC(=S)Nc1cccc2ccccc12` registered a solubility (kinetic) of over 39 µg/mL. `Cc1cc(C)nc(NC(=S)Nc2cccc(F)c2)c1` showed a solubility (kinetic) of under 0.2 µg/mL. With `O=C(CN1CCCCCC1)Nc1ccc(Cl)cn1`, the kinetic solubility came to 35.3 µg/mL (≈ 132 µM). As for `CC(C1CCN(Cc2nc(C3CC3)no2)CC1)N1CCOCC1` (stereo not drawn), the figure is 47.9 µg/mL (≈ 149 µM); as for `O=C(Nc1ccc(C(=O)N2CCCCC2)cc1)c1cccs1`, 35 µg/mL (≈ 111 µM); as for `O=C(NC(=S)Nc1ccccc1[N+](=O)[O-])c1ccccc1Cl`, 1.2 µg/mL (≈ 3.57 µM). The compound `CCc1ccc(NC(=S)N2CCN(c3cccc(OC)c3)CC2)cc1` came in with a kinetic solubility of 0.3 µg/mL (≈ 0.844 µM). To `Cn1c(CNC(=O)C2CCCCC2)cc2ccccc21` belongs 1.7 µg/mL (≈ 6.29 µM); to `O=C(CN1C(=O)CCC1=O)NC(=O)NC1CCCC1`, over 40.1 µg/mL. As for `COc1ccccc1C(=O)O/N=C(\N)c1ccccn1`, the figure is over 40.7 µg/mL; as for `NS(=O)(=O)c1ccc(S(=O)(=O)c2ccccc2)nc1`, over 44.7 µg/mL; as for `CCn1c(O)c(C=NCc2ccccc2)sc1=S`, under 0.3 µg/mL.

Consider `CC(=O)Nc1ccc(-n2c(C)ccc2C)cc1`, for which the kinetic solubility was over 34.2 µg/mL. `CCC(=O)Nc1ccc(S(=O)(=O)Nc2ccccn2)cc1`: the solubility (kinetic) was over 45.8 µg/mL. In the case of `O=C(OCc1nc(-c2ccccc2Cl)no1)c1ccco1`, the kinetic solubility was found to be 19 µg/mL (≈ 62.4 µM).

Regarding `Cn1ccsc1=NC(=O)c1cccc(OC(F)F)c1`, the kinetic solubility is over 42.6 µg/mL.

`COc1ccc(C(=O)O)cc1S(=O)(=O)N(C)CCc1ccccn1` gave a kinetic solubility of over 52.6 µg/mL.

In turn, `COC(=O)c1ccccc1NC(=O)c1cc[n+](C)cc1` came in with a solubility (kinetic) of 26.8 µg/mL. In the case of `O=[N+]([O-])c1ccc(Nc2ccccc2O)c2nonc12`, the kinetic solubility is over 40.8 µg/mL. `Cc1cccc2c(=O)oc(-c3ccccc3Cl)nc12` registered a solubility (kinetic) of under 0.6 µg/mL. In turn, `O=C(c1cccc([N+](=O)[O-])c1)N1CCN(C/C=C/c2ccccc2)CC1` came in with a solubility (kinetic) of 52 µg/mL (≈ 148 µM). For the compound `COc1ccc(N)cc1S(=O)(=O)Nc1ccccc1Cl`, the kinetic solubility is over 46.9 µg/mL. `Cn1ccnc1C(=O)c1cccc(Br)c1` came in with a solubility (kinetic) of over 39.8 µg/mL. `Cc1ccc(NC(=O)c2ccc([N+](=O)[O-])o2)c(C)c1` gave a solubility (kinetic) of over 39 µg/mL. As for `CCC(C)(C)NC(=O)COc1ccc(OCc2ccccc2)cc1`, the figure is 9 µg/mL (≈ 27.5 µM); as for `COc1ccc(Cl)cc1NC(=O)COC(=O)C1CC(=O)N(Cc2ccccc2)C1` (stereo not drawn), 57.4 µg/mL (≈ 138 µM); as for `CCc1ccccc1NC(=O)NCc1ccccn1`, over 38.3 µg/mL. The compound `Cc1cc(C)cc(-n2c(C)nc3cc(C(=O)O)ccc32)c1` registered a solubility (kinetic) of 35 µg/mL (≈ 125 µM). To `Cc1ccc(C(=O)NCCNC(=O)c2ccccc2)cc1` belongs over 42.4 µg/mL; to `CCOC(=O)N1CCN(c2ccccc2OC)CC1`, over 39.6 µg/mL; to `O=Cc1ccc(Sc2ncccn2)o1`, 24.2 µg/mL (≈ 117 µM). Consider `Cn1c(N)nc2nc(CCc3ccccc3)c(=O)[nH]c2c1=O`, for which the kinetic solubility came to 9.9 µg/mL (≈ 33.3 µM). Take `COc1ccc(C(=O)Nc2cccnc2Cl)cc1OC`: the solubility (kinetic) was 42.5 µg/mL (≈ 145 µM). As to `CCOc1ccc(C(=O)Nc2ccc(CN3CCOCC3)cc2)cc1Cl`, the solubility (kinetic) amounted to 27.5 µg/mL (≈ 73.4 µM). In turn, `CCCCc1cc(=O)oc2cc(OCC(=O)N3CCOCC3)ccc12` had a solubility (kinetic) of 19.2 µg/mL (≈ 55.6 µM). This solubility kinetic and that of the compound before are within 1.5-fold of each other. With `CCOC(=O)c1ccc(NC(=S)Nc2cccc(N)n2)cc1`, the solubility (kinetic) turned out to be 2.3 µg/mL (≈ 7.27 µM).

The compound `O=C(c1ccccc1O)N1CCOCC1` yielded a solubility (kinetic) of 30.5 µg/mL (≈ 147 µM). Against the preceding compound, the solubility kinetic is about 13-fold higher. `Cc1ccc(CN2CCc3[nH]c(=S)[nH]c(=O)c3C2)cc1` showed a solubility (kinetic) of 10.5 µg/mL (≈ 36.5 µM). As to `N#Cc1cccc(Nc2c3c(nc4ccccc24)CCC3)c1`, the solubility (kinetic) came out at 8.4 µg/mL (≈ 29.4 µM). `Cc1cccnc1NC(=S)Nc1ccc(Cl)c(Cl)c1`: the kinetic solubility is 3.7 µg/mL (≈ 11.9 µM). The compound `C/C(=N/OC(=O)c1ccc(Cl)cc1Cl)c1oc(C)nc1C` showed a kinetic solubility of 1.9 µg/mL (≈ 5.81 µM).

Turning to `Cc1cccc(S(=O)(=O)Nc2ccc3c(c2)OCCO3)c1`, the solubility (kinetic) amounted to 28.7 µg/mL (≈ 94 µM). On to `CN(C)C(=O)COc1ccc(C(=O)/C=C/c2cccnc2)cc1`, for which the kinetic solubility came out at 41.6 µg/mL (≈ 134 µM).

Compound `COCc1cc(OC(=O)N(C)C)nc(-c2ccc(C)c(Cl)c2)n1` registered a solubility (kinetic) of 0.7 µg/mL (≈ 2.08 µM). `Cc1ccccc1-n1c(C)nc2ccsc2c1=O.Cl`: the solubility (kinetic) is over 43.9 µg/mL. The compound `FC(F)Oc1ccc(NC(=S)NCc2ccco2)cc1Cl` returned a kinetic solubility of over 49.9 µg/mL.

With `CCOC(=O)c1c(C)oc2cc(Cl)c(O)c(CN(C)C)c12`, the solubility (kinetic) was 43.9 µg/mL (≈ 141 µM). To `CC1(C)C(=O)Nc2ccccc2N1C(=O)COc1ccc(C#N)cc1` belongs 38.1 µg/mL (≈ 114 µM); to `C=CCN(CC=C)C(=S)Nc1ccc2nsnc2c1`, over 43.6 µg/mL.

`O=CC(Br)P(=O)(N1CCOCC1)N1CCOCC1` (stereo not drawn): the kinetic solubility is over 51.2 µg/mL. The compound `CN1CCC(N(C)C(=O)c2cc(-c3ccc(F)cc3)nc3ccccc23)CC1.Cl` had a solubility (kinetic) of over 62.1 µg/mL. In turn, `CC(CCc1ccccc1)NC(=O)CCC(=O)N1CCC(C(N)=O)CC1` (stereo not drawn) registered a kinetic solubility of 48.7 µg/mL (≈ 135 µM).

For the origin of these results see PubChem BioAssay AID1996.
